Test results as given in PubChem BioAssay AID248 (DTP/NCI, 2004).
“And” between values parts separate entries of the source, which are not always exact repeats. Equal values may be shown once. Toxic doses and inconclusive results are not listed.

Tested on: L1210 leukemia ip in BDF1 mice, survival T/C
Experiment: NCI In Vivo Anticancer Drug Screen. Data for tumor model L1210 Leukemia (intraperitoneal) in B6D2F1 (BDF1) mice
Settings: endpoint: mean survival time, higher = longer survival
Outline: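 Antitumor effect is assessed in tumor-bearing animals. Survival in the compound arm is compared with a vehicle-dosed control arm and expressed as their quotient.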

[1] = dose: 200.0 mg/kg/injection, schedule: Q01DX009 (ip), vehicle: saline
[2] = dose: 100.0 mg/kg/injection, schedule: Q01DX009 (ip), vehicle: saline

## N#Cc1nccnc1C#N
dose: 25.0 mg/kg/injection, schedule: Q04DX002 (ip), vehicle: DMSO
  T/C: 96 % of control
dose: 50.0 mg/kg/injection, schedule: Q04DX002 (ip), vehicle: DMSO
  T/C: 100 % of control
dose: 100.0 mg/kg/injection, schedule: Q04DX002 (ip), vehicle: DMSO
  T/C: 100 % of control

## Nc1nc2nsnc2nc1N
dose: 3.12 mg/kg/injection, schedule: Q01DX009 (ip), vehicle: water
  T/C: 86 % of control
dose: 6.25 mg/kg/injection, schedule: Q01DX009 (ip), vehicle: water
  T/C: 93 % of control
dose: 12.5 mg/kg/injection, schedule: Q01DX009 (ip), vehicle: water
  T/C: 90 % of control
dose: 25.0 mg/kg/injection, schedule: Q01DX009 (ip), vehicle: water
  T/C: 98 % of control and 106 % of control
dose: 50.0 mg/kg/injection, schedule: Q01DX009 (ip), vehicle: water
  T/C: 97 % of control and 91 % of control

## CCCSc1nc(N)nc2nc[nH]c12
dose: 1.25 mg/kg/injection, schedule: Q01DX Z (ip), vehicle: carboxymethylcellulose (CMC)
  T/C: 91 % of control
dose: 2.5 mg/kg/injection, schedule: Q01DX Z (ip), vehicle: carboxymethylcellulose (CMC)
  T/C: 114 % of control
dose: 2.9 mg/kg/injection, schedule: Q01DX Z (ip), vehicle: carboxymethylcellulose (CMC)
  T/C: 114 % of control
dose: 4.4 mg/kg/injection, schedule: Q01DX Z (ip), vehicle: carboxymethylcellulose (CMC)
  T/C: 116 % of control
dose: 5.0 mg/kg/injection, schedule: Q01DX Z (ip), vehicle: carboxymethylcellulose (CMC)
  T/C: 118 % of control
dose: 8.3 mg/kg/injection, schedule: Q01DX009 (ip), vehicle: saline
  T/C: 102 % of control
dose: 12.0 mg/kg/injection, schedule: Q01DX009 (ip), vehicle: saline
  T/C: 105 % of control
dose: 20.0 mg/kg/injection, schedule: Q01DX Z (ip), vehicle: carboxymethylcellulose (CMC)
  T/C: 151 % of control and 168 % of control
dose: 29.0 mg/kg/injection, schedule: Q01DX009 (ip), vehicle: Klucel (hydroxypropylcellulose) (HPC)
  T/C: 121 % of control
dose: 40.0 mg/kg/injection, schedule: Q01DX Z (ip), vehicle: carboxymethylcellulose (CMC)
  T/C: 150 % of control and 153 % of control and 156 % of control
dose: 62.0 mg/kg/injection, schedule: Q01DX001 (ip), vehicle: other
  T/C: 108 % of control
dose: 62.0 mg/kg/injection, schedule: Q## X001 (ip), vehicle: other
  T/C: 119 % of control
dose: 90.0 mg/kg/injection, schedule: Q01DX Z (ip), vehicle: carboxymethylcellulose (CMC)
  T/C: 105 % of control
dose: 125.0 mg/kg/injection, schedule: Q01DX001 (ip), vehicle: other
  T/C: 118 % of control and 88 % of control
dose: 125.0 mg/kg/injection, schedule: Q## X001 (ip), vehicle: other
  T/C: 123 % of control
dose: 135.0 mg/kg/injection, schedule: Q01DX Z (ip), vehicle: carboxymethylcellulose (CMC)
  T/C: 92 % of control
dose: 160.0 mg/kg/injection, schedule: Q01DX Z (ip), vehicle: carboxymethylcellulose (CMC)
  T/C: 151 % of control
[1]
  T/C: 90 % of control
dose: 250.0 mg/kg/injection, schedule: Q01DX001 (ip), vehicle: other
  T/C: 120 % of control and 124 % of control
dose: 300.0 mg/kg/injection, schedule: Q01DX001 (ip), vehicle: other
  T/C: 115 % of control and 118 % of control
dose: 300.0 mg/kg/injection, schedule: Q## X001 (ip), vehicle: other
  T/C: 117 % of control
dose: 400.0 mg/kg/injection, schedule: Q01DX001 (ip), vehicle: other
  T/C: 101 % of control
dose: 400.0 mg/kg/injection, schedule: Q## X001 (ip), vehicle: other
  T/C: 101 % of control
dose: 500.0 mg/kg/injection, schedule: Q## X001 (ip), vehicle: other
  T/C: 203 % of control

## CCC[n+]1cccc(C#N)c1
dose: 37.5 mg/kg/injection, schedule: Q04DX003 (ip), vehicle: saline
  T/C: 97 % of control
dose: 75.0 mg/kg/injection, schedule: Q01DX001 (ip), vehicle: saline
  T/C: 94 % of control
dose: 75.0 mg/kg/injection, schedule: Q04DX003 (ip), vehicle: saline
  T/C: 100 % of control
dose: 150.0 mg/kg/injection, schedule: Q01DX001 (ip), vehicle: saline
  T/C: 103 % of control

## NC(=O)c1cn[nH]c1/N=N/N(CCF)CCF
dose: 9.5 mg/kg/injection, schedule: Q01DX001 (ip), vehicle: other
  T/C: 111 % of control
dose: 10.0 mg/kg/injection, schedule: Q01DX009 (ip), vehicle: other
  T/C: 119 % of control
dose: 19.0 mg/kg/injection, schedule: Q01DX001 (ip), vehicle: other
  T/C: 124 % of control

## CCCCOP(=O)(NNP(=O)(OCCCC)OCCCC)OCCCC
dose: 100.0 mg/kg/injection, schedule: Q04DX002 (ip), vehicle: saline with Tween-80
  T/C: 108 % of control
dose: 200.0 mg/kg/injection, schedule: Q04DX002 (ip), vehicle: saline with Tween-80
  T/C: 116 % of control
dose: 400.0 mg/kg/injection, schedule: Q04DX002 (ip), vehicle: saline with Tween-80
  T/C: 105 % of control

## ClC(CN1CCCCC1)C(Cl)c1ccccc1 (centres undefined)
dose: 50.0 mg/kg/injection, schedule: Q01DX009 (ip), vehicle: saline
  T/C: 90 % of control
dose: 50.0 mg/kg/injection, schedule: Q04DX003 (ip), vehicle: saline sonified
  T/C: 96 % of control
[2]
  T/C: 91 % of control
dose: 100.0 mg/kg/injection, schedule: Q04DX003 (ip), vehicle: saline sonified
  T/C: 91 % of control
dose: 200.0 mg/kg/injection, schedule: Q04DX003 (ip), vehicle: saline sonified
  T/C: 101 % of control

## CN(C)/N=N\N(C)C
dose: 25.0 mg/kg/injection, schedule: Q01DX009 (ip), vehicle: Klucel (hydroxypropylcellulose) (HPC)
  T/C: 98 % of control
dose: 50.0 mg/kg/injection, schedule: Q01DX009 (ip), vehicle: Klucel (hydroxypropylcellulose) (HPC)
  T/C: 103 % of control
dose: 100.0 mg/kg/injection, schedule: Q01DX009 (ip), vehicle: Klucel (hydroxypropylcellulose) (HPC)
  T/C: 101 % of control

## C=CCOc1nc(SC)ncc1C(=O)O
dose: 100.0 mg/kg/injection, schedule: Q01DX001 (ip), vehicle: Klucel (hydroxypropylcellulose) (HPC)
  T/C: 97 % of control
dose: 200.0 mg/kg/injection, schedule: Q01DX001 (ip), vehicle: Klucel (hydroxypropylcellulose) (HPC)
  T/C: 97 % of control
dose: 400.0 mg/kg/injection, schedule: Q01DX001 (ip), vehicle: Klucel (hydroxypropylcellulose) (HPC)
  T/C: 91 % of control

## CCOc1ccc(C(=O)O)cc1OCC
dose: 100.0 mg/kg/injection, schedule: Q04DX003 (ip), vehicle: saline with Tween-80
  T/C: 110 % of control
dose: 200.0 mg/kg/injection, schedule: Q04DX003 (ip), vehicle: saline with Tween-80
  T/C: 98 % of control
dose: 400.0 mg/kg/injection, schedule: Q04DX003 (ip), vehicle: saline with Tween-80
  T/C: 96 % of control

## C=C1C2CCC(C2)C1(C)CC/C=C(/C)CO (centres undefined) (tested in a mixture with another compound)
dose: 100.0 mg/kg/injection, schedule: Q04DX003 (ip), vehicle: Klucel (hydroxypropylcellulose) (HPC)
  T/C: 96 % of control
dose: 200.0 mg/kg/injection, schedule: Q04DX003 (ip), vehicle: Klucel (hydroxypropylcellulose) (HPC)
  T/C: 96 % of control
dose: 400.0 mg/kg/injection, schedule: Q04DX003 (ip), vehicle: Klucel (hydroxypropylcellulose) (HPC)
  T/C: 93 % of control

## CC1=CC(=O)C(CO)=CC1=O
dose: 0.09 mg/kg/injection, schedule: Q01DX009 (ip), vehicle: saline with Tween-80
  T/C: 93 % of control
dose: 0.18 mg/kg/injection, schedule: Q01DX009 (ip), vehicle: saline with Tween-80
  T/C: 97 % of control
dose: 0.37 mg/kg/injection, schedule: Q01DX009 (ip), vehicle: saline with Tween-80
  T/C: 104 % of control
dose: 3.0 mg/kg/injection, schedule: Q01DX009 (ip), vehicle: other
  T/C: 105 % of control
dose: 3.0 mg/kg/injection, schedule: Q04DX002 (ip), vehicle: other
  T/C: 107 % of control
dose: 6.0 mg/kg/injection, schedule: Q01DX009 (ip), vehicle: other
  T/C: 91 % of control
dose: 6.0 mg/kg/injection, schedule: Q04DX002 (ip), vehicle: other
  T/C: 96 % of control
dose: 12.5 mg/kg/injection, schedule: Q04DX002 (ip), vehicle: other
  T/C: 86 % of control

## O=C(O)c1ccccc1C(=O)NCc1ccc(Cl)cc1Cl
dose: 100.0 mg/kg/injection, schedule: Q04DX002 (ip), vehicle: Klucel (hydroxypropylcellulose) (HPC)
  T/C: 88 % of control
dose: 200.0 mg/kg/injection, schedule: Q04DX002 (ip), vehicle: Klucel (hydroxypropylcellulose) (HPC)
  T/C: 100 % of control
dose: 400.0 mg/kg/injection, schedule: Q04DX002 (ip), vehicle: Klucel (hydroxypropylcellulose) (HPC)
  T/C: 98 % of control

## O=S(=O)(Cc1ccccc1)C1CCCC1
dose: 100.0 mg/kg/injection, schedule: Q01DX001 (ip), vehicle: saline
  T/C: 104 % of control
[2]
  T/C: 96 % of control
dose: 100.0 mg/kg/injection, schedule: Q04DX003 (ip), vehicle: acetone
  T/C: 103 % of control
dose: 200.0 mg/kg/injection, schedule: Q01DX001 (ip), vehicle: saline
  T/C: 104 % of control
[1]
  T/C: 110 % of control
dose: 200.0 mg/kg/injection, schedule: Q04DX003 (ip), vehicle: acetone
  T/C: 97 % of control
dose: 400.0 mg/kg/injection, schedule: Q01DX001 (ip), vehicle: saline
  T/C: 93 % of control
dose: 400.0 mg/kg/injection, schedule: Q01DX009 (ip), vehicle: saline
  T/C: 113 % of control
dose: 400.0 mg/kg/injection, schedule: Q04DX003 (ip), vehicle: acetone
  T/C: 102 % of control
